Source: patent US20130045995A1 (priority 2010, published 2013)
Read-outs that look alike come from different tables or passages of the source.

Tests used:
Phytophthora infestans = type: in vivo; conditions: 500 ppm of active ingredient; tomato, preventive; evaluated 7 days after inoculation
[1] = Measurement of logP values by HPLC on reversed phase columns (EEC directive 79/831 Annex V.A8); type: physicochemical; conditions: for Log P: pH 2.7, 0.1% formic acid in water / acetonitrile; for chromatographic logP: reversed-phase HPLC column
Procedure: Measurement of logP values was performed according EEC directive 79/831 Annex V.A8 by HPLC (High Performance Liquid Chromatography) on reversed phase columns with the following methods: […]

Plasmopara viticola = assay: Plasmopara test (grapevines) / preventive; type: in vivo; conditions: 100 ppm of active ingredient, evaluated 6 days after inoculation
Procedure: • Plasmopara Test (Grapevines)/Preventive
Solvent: 24.5 parts by weight of acetone • 24.5 parts by weight of dimethylacetamide
Emulsifier: 1 part by weight of alkylaryl polyglycol ether
To produce a suitable preparation of active compound, 1 part by weight of active compound is mixed with the stated amounts of solvent and emulsifier, and the concentrate is diluted with water to the desired concentration.
To test for preventive activity, young plants are sprayed with the preparation of active compound at the stated rate of application. After the spray coating has dried on, the plants are inoculated with an aqueous spore suspension of Plasmopara viticola and then remain for 1 day in an incubation cabinet at approximately 20° C. and a relative atmospheric humidity of 100%. The plant is subsequently placed for 4 days in a greenhouse at approximately 21° C. and a relative atmospheric humidity of approximately 90%. The plants are then misted and placed for 1 day in an incubation cabinet.
The test is evaluated 6 days after the inoculation. 0% means an efficacy which corresponds to that of the untreated control, while an efficacy of 100% means that no disease is observed.

Structure (SMILES) | efficacy (Phytophthora infestans) | other results
Cc1snnc1C(=NOCc1csc(NC(=O)C2CN(C)c3ccccc3O2)n1)c1ccccc1 (racemic) [Example 17] | 97% | –
Cc1cccc2c1OC(C(=O)Nc1nc(CON=C(c3ccccc3)c3nnsc3C)cs1)CO2 (racemic) [Example 5] | 100% | –
Cc1snnc1C(=NOCc1cccc(NC(=O)C2CN(C)c3ccccc3O2)n1)c1ccccc1 (racemic) [Example 18] | 100% | Log P ([1]; HPLC): 4.56
Cc1snnc1C(=NOCc1csc(NC(=O)C2COc3ccccc3O2)n1)c1ccccc1 (racemic) [Example 6] | 100% | efficacy (Plasmopara viticola): 77%
Cc1snnc1C(=NOCc1csc(NC(=O)C2CC(=O)c3cc(F)ccc3O2)n1)c1ccccc1 (mixture of isomers) [Example 7] | 98% | Log P ([1]; HPLC): 3.72
Cc1snnc1C(=NOCc1cccc(NC(=O)C2CC(=O)c3cc(F)ccc3O2)n1)c1ccccc1 (mixture of isomers) [Example 16] | 95% | –
Cc1snnc1C(=NOCc1csc(NC(=O)C2CCc3ccccc3O2)n1)c1ccccc1 (racemic) [Example 2] | 100% | –
Cc1cccc2c1OC(C(=O)Nc1cccc(CON=C(c3ccccc3)c3nnsc3C)n1)CO2 (racemic) [Example 12] | 95% | Log P ([1]; HPLC): 4.73
Cc1snnc1C(=NOCc1cccc(NC(=O)C2Cc3ccccc3O2)n1)c1ccccc1 (racemic) [Example 15] | 100% | efficacy (Plasmopara viticola): 74%
Cc1snnc1C(=NOCc1csc(NC(=O)C2COc3ccccc3O2)n1)c1ccccc1 (stereo not drawn) [Example 1, N-{4-[({[(5-methyl-1,2,3-thiadiazol-4-yl)(phenyl)methylene]amino}oxy)methyl]-1,3-thiazol-2-yl}-2,3-dihydro-1,4-benzodioxine-2-carboxamide] | 100% | chromatographic logP ([1]; pH 2.7, [I1] main isomer, HPLC, pH 2.7, 0.1% formic acid, read-out: Log P): 3.99; chromatographic logP ([1]; pH 2.7, mixture of Z and E diastereoisomers, two values, read-out: logP(HCOOH)): 3.99; efficacy (Plasmopara viticola): 94%
Cc1snnc1C(=NOCc1cccc(NC(=O)C2CCc3ccccc3O2)n1)c1ccccc1 (racemic) [Example 14] | 97% | Log P ([1]; HPLC): 4.66
Cc1snnc1C(=NOCc1csc(NC(=O)C2Cc3ccccc3O2)n1)c1ccccc1 (racemic) [Example 3] | 100% | –
Cc1snnc1C(=NOCc1cccc(NC(=O)C2COc3ccccc3O2)n1)c1ccccc1 (mixture of isomers) [Example 10] | 95% | efficacy (Plasmopara viticola): 98%
Cc1snnc1C(=NOCc1cccc(NC(=O)C2COc3ccccc3O2)n1)c1ccccc1 (racemic) [Example 13] | 100% | –
